In general, IC50 refers to the concentration that gives 50% inhibition.

Holding throughout (assay type): biochemical
Test [1] concerns the target recombinant hSSAO (Homo sapiens (Human), UniProt Q16853). The test can be described thus: SSAO Activity Assay (MAO-Glo assay kit). The settings on record: 40 μM substrate, 30 mins pre-incubation. Here is the method: (§1) The biological activities of the compounds of the present application can be assessed with methods and assays known in the art. For example, the potency of the compounds of the present application can be evaluated with an SSAO Activity Assay. Briefly, compounds of the present application can be applied to recombinant hSSAO, hMAO-A, and hMAO-B isoforms and the amine oxidase activity of the enzymes are measured after the addition and subsequent oxidation of the luminogenic substrate (e.g., with the MAO-Glo assay kit from Promega). The IC50 can be calculated, for example, by fitting the dose response curve using a 4-parameter non-linear regression routine.
(§2) Amine oxidase activity of recombinant hSSAO, hMAO-A, and hMAO-B isoforms are measured using the MAO-Glo assay kit (Promega, V1402). Ten nL test compounds (with DMSO as vehicle, 0.1% v/v for hSSAO, hMAO-A and hMAO-B) were added into assay plates by Echo, and pre-incubated with 5 μL of enzyme for 30 mins at room temperature before the addition of 5 μL of luminogenic substrate. The substrate concentration is 40 μM for human recombinant SSAO, 40 μM for human recombinant MAO-A, and 4 μM for human recombinant MAO-B. The hSSAO and hMAO-A assays were conducted in the MAO-A reaction buffer in the kit, and the MAO-B assay was conducted in the MAO-B reaction buffer. Oxidation of the substrate was conducted for 1 hr, before the addition of detecting reagent according the manufacture's protocol. The IC50 value of the tested compounds was calculated by fitting the dose response curve using a 4-parameter non-linear regression routine.

The target of test [2] is recombinant hMAO-A (Homo sapiens (Human), UniProt P21397). Put plainly: MAO-A activity assay (MAO-Glo assay kit). Conditions: 40 μM substrate, 30 mins pre-incubation. The procedure:
as §1, §2

The target of test [3] is recombinant hMAO-B (Homo sapiens (Human), UniProt P27338). Put plainly: MAO-B activity assay (MAO-Glo assay kit). The settings on record: 4 μM substrate, 30 mins pre-incubation. The procedure:
as §1, §2

recombinant hSSAO, sequence (Q16853 whole entry, canonical isoform): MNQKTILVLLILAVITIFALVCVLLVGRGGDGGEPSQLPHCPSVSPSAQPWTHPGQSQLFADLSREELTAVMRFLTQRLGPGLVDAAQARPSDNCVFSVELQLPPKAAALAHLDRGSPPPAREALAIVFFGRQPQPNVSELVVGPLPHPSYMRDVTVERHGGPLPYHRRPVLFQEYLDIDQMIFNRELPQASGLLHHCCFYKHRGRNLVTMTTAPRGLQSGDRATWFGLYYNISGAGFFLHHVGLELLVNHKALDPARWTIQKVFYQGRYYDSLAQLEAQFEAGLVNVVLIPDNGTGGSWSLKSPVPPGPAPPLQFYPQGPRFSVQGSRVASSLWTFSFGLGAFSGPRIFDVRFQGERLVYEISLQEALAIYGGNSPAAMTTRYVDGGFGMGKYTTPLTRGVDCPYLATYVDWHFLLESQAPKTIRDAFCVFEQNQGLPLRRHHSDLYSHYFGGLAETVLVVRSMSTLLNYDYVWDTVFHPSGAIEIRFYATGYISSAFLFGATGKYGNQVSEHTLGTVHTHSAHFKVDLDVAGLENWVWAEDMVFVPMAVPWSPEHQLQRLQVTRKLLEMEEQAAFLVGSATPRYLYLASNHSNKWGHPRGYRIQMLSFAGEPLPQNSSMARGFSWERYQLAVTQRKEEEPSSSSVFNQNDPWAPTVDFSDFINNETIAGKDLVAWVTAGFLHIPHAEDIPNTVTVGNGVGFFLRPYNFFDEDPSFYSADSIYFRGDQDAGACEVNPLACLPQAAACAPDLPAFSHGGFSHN
recombinant hMAO-B, sequence (P27338 whole entry): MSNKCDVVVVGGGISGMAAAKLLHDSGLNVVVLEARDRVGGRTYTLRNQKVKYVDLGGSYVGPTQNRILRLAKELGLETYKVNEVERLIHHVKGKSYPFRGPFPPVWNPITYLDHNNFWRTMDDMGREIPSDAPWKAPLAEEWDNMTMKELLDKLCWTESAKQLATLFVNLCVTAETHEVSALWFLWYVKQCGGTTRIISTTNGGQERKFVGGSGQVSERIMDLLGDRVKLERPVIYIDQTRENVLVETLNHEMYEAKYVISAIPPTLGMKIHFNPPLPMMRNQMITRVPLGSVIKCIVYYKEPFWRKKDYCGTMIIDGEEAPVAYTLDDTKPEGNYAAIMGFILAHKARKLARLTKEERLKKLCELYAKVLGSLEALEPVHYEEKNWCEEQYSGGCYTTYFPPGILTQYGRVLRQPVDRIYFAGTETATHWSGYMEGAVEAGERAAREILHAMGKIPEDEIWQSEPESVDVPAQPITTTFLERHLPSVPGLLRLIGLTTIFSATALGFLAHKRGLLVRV
recombinant hMAO-A, sequence (P21397 whole entry): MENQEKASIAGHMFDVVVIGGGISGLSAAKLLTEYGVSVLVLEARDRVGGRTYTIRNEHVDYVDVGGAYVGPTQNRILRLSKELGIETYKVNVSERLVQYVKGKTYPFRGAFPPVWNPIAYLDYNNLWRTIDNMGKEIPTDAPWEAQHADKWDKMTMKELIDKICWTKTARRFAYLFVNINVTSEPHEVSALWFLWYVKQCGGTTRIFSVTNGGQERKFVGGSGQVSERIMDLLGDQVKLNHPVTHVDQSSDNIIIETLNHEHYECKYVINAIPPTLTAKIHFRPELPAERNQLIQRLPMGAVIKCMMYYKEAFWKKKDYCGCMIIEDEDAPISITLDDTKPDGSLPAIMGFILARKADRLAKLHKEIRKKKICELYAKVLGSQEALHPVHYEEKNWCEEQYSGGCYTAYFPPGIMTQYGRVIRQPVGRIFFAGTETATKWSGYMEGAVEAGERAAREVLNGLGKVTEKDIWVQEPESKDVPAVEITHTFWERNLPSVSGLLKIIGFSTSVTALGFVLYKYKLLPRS

For `CCN(CC)C(=O)C12CCC(CS(=O)(=O)c3ccc(OC/C(=C/F)CN)cc3)(CC1)CC2` [Compound 74, (E)-4-(((4-((2-(aminomethyl)-3-fluoroallyl)oxy)phenyl)sulfonyl)methyl)-N,N-diethylbicyclo[2.2.2] octane-1-carboxamide], the IC50 was 0.02 to 0.1 µM in test [1], > 30 µM in test [2] and > 30 µM in test [3].

For the molecule `CC(C)(C)C(=O)NC12CC(CS(=O)(=O)c3ccc(OC/C(=C/F)CN)cc3)(C1)C2` [Compound 77, (E)-N-(3-(((4-((2-(aminomethyl)-3-fluoroallyl)oxy)phenyl)sulfonyl)methyl)bicyclo[1.1.1]pentan-1-yl)pivalamide], the IC50 in test [1] is < 0.02 µM; in test [2], > 30 µM; in test [3] it was > 30 µM.

On to `CC(C)OCCNC(=O)C12CCC(CS(=O)(=O)c3ccc(OC/C(=C/F)CN)cc3)(CC1)CC2` [Compound 68, (E)-4-(((4-((2-(aminomethyl)-3-fluoroallyl)oxy)phenyl)sulfonyl)methyl)-N-(2-isopropoxyethyl)bicyclo[2.2.2] octane-1-carboxamide], for which the IC50 in test [1] is < 0.02 µM; in test [2] it was > 30 µM; in test [3] it was > 30 µM.

For `CC(CN1C(=O)CCC1(C)C)CS(=O)(=O)c1ccc(OC/C(=C/F)CN)cc1` (stereo not drawn) [Compound 111, (E)-1-(3-((4-((2-(aminomethyl)-3-fluoroallyl)oxy)phenyl)sulfonyl)-2-methylpropyl)-5,5-dimethylpyrrolidin-2-one], the results for the IC50 in test [1], in test [2] and in test [3] were 0.02 to 0.1 µM, > 30 µM and 10 to 30 µM, respectively.

In the case of `NC/C(=C\F)COc1ccc(S(=O)(=O)CN2C(=O)C3(CC3)c3ccccc32)cc1` [Compound 120, (E)-1′-(((4-((2-(aminomethyl)-3-fluoroallyl)oxy)phenyl)sulfonyl)methyl)spiro[cyclopropane-1,3′-indolin]-2′one], the IC50 in test [1] was 0.02 to 0.1 µM; in test [2] it was > 30 µM; in test [3], > 30 µM.

Regarding `CC(C)(C)NC(=O)C12CCC(CS(=O)(=O)c3ccc(OC/C(=C\F)CN)cc3)(CC1)CC2` [Compound 141, (Z)-4-(((4-((2-(aminomethyl)-3-fluoroallyl)oxy)phenyl)sulfonyl)methyl)-N-(tert-butyl)bicyclo[2.2.2]octane-1-carboxamide], the IC50 was 0.02 to 0.1 µM in test [1], > 30 µM in test [2] and > 30 µM in test [3].

For the molecule `NC/C(=C\F)COc1ccc(S(=O)(=O)CC23CCC(C(=O)NCC4CC4)(CC2)CC3)cc1` [Compound 66, (E)-4-(((4-((2-(aminomethyl)-3-fluoroallyl)oxy)phenyl)sulfonyl)methyl)-N-(cyclopropylmethyl)bicyclo [2.2.2]octane-1-carboxamide], the figures for the IC50 in test [1], in test [2] and in test [3] were < 0.02 µM, > 30 µM and 10 to 30 µM, respectively.

With `NC/C(=C\F)COc1ccc(S(=O)(=O)CC23CCC(NC(=O)C4(C(F)(F)F)CC4)(CC2)CC3)cc1` [Compound 85, (E)-N-(4-(((4-((2-(aminomethyl)-3-fluoroallyl)oxy)phenyl)sulfonyl)methyl)bicyclo[2.2.2]octan-1-yl)-1-(trifluoromethyl)cyclopropane-1-carboxamide], the IC50 was 0.02 to 0.1 µM in test [1], > 30 µM in test [2] and 10 to 30 µM in test [3].

Consider `NC/C(=C\F)COc1ccc(S(=O)(=O)CCN2CCCCC2=O)cc1` [Compound 107, (E)-1-(2-((4-((2-(aminomethyl)-3-fluoroallyl)oxy)phenyl)sulfonyl)ethyl) piperidin-2-one], for which the IC50 in test [1] was < 0.02 µM; in test [2], > 30 µM; in test [3] it was < 10 µM.

For the molecule `NC/C(=C\F)COc1ccc(S(=O)(=O)CC23CCC(NC(=O)C4CC4(F)F)(CC2)CC3)cc1` (stereo not drawn) [Compound 84, (E)-N-(4-(((4-((2-(aminomethyl)-3-fluoroallyl)oxy)phenyl)sulfonyl)methyl)bicyclo[2.2.2]octan-1-yl)-2,2-difluorocyclopropane-1-carboxamide], the IC50 in test [1] is < 0.02 µM; in test [2], > 30 µM; in test [3] it was 10 to 30 µM.

For the molecule `CC(C)(C)C(=O)NC12CCC(CS(=O)(=O)c3ccc(OC/C(=C/F)CN)cc3)(CC1)CC2` [Compound 90, (E)-N-(4-(((4-((2-(aminomethyl)-3-fluoroallyl)oxy)phenyl)sulfonyl)methyl)bicyclo[2.2.2]octan-1-yl)pivalamide], the IC50 is < 0.02 µM in test [1], > 30 µM in test [2] and 10 to 30 µM in test [3].

For `NC/C(=C\F)COc1ccc(S(=O)(=O)CC23CCC(NC(=O)C4(F)CC4)(CC2)CC3)cc1` [Compound 86, (E)-N-(4-(((4-((2-(aminomethyl)-3-fluoroallyl)oxy)phenyl)sulfonyl)methyl)bicyclo[2.2.2]octan-1-yl)-1-fluorocyclopropane-1-carboxamide], the IC50 is < 0.02 µM in test [1], > 30 µM in test [2] and < 10 µM in test [3].

For `CC(C)C(=O)N1CCC(CS(=O)(=O)c2ccc(OC/C(=C/F)CN)cc2)CC1` [compound 37, (E)-1-(4-(((4-((2-(aminomethyl)-3-fluoroallyl)oxy)phenyl)sulfonyl)methyl)piperidin-1-yl)-2-methylpropan-1-one], the figures for the IC50 in test [1], in test [2] and in test [3] were < 0.02 µM, > 30 µM and > 30 µM, respectively.

In the case of `NC/C(=C\F)COc1ccc(S(=O)(=O)CC2CCN(C(=O)C3(C(F)(F)F)CC3)CC2)cc1` [Compound 49, (E)-(4-(((4-((2-(aminomethyl)-3-fluoroallyl)oxy)phenyl)sulfonyl)methyl)piperidin-1-yl)(1-(trifluoromethyl)cyclopropyl) methanone], the half-inhibitory concentration (IC50) in test [1] was 0.02 to 0.1 µM; in test [2], > 30 µM; in test [3], > 30 µM.

`NC/C(=C\F)COc1ccc(S(=O)(=O)CN2CCC3(CCCC3)C2=O)c(F)c1` [Compound 128, (E)-2-(((4-((2-(aminomethyl)-3-fluoroallyl)oxy)-2-fluorophenyl)sulfonyl)methyl)-2-azaspiro[4.4]nonan-1-one]: the IC50 is 0.1 to 0.5 µM in test [1], > 30 µM in test [2] and > 30 µM in test [3].

As to `NC/C(=C/F)COc1ccc(S(=O)(=O)CC23CCC(C(=O)NC4CCC4)(CC2)CC3)cc1` [Compound 140, (Z)-4-(((4-((2-(aminomethyl)-3-fluoroallyl)oxy)phenyl)sulfonyl)methyl)-N-cyclobicyclo[2.2.2]octane-1-carboxamide], the IC50 is < 0.02 µM in test [1], > 30 µM in test [2] and > 30 µM in test [3].

`CC(CN1CCOCC1)CS(=O)(=O)c1ccc(OC/C(=C/F)CN)cc1F` (stereo not drawn) [Compound 114, (E)-3-fluoro-2-((3-fluoro-4-((2-methyl-3-morpholinopropyl)sulfonyl)phenoxy)methyl)prop-2-en-1-amine]: the IC50 in test [1] is 0.02 to 0.1 µM; in test [2] it was > 30 µM; in test [3] it was > 30 µM.

As for `CC1(CS(=O)(=O)c2ccc(OC/C(=C/F)CN)cc2)CCN(C(=O)C2(C)CCC2)CC1` [Compound 56, (E)-(4-(((4-((2-(aminomethyl)-3-fluoroallyl)oxy)phenyl)sulfonyl)methyl)-4-methylpiperidin-1-yl)(1-methylcyclobutyl)methanone], the values for the IC50 in test [1], in test [2] and in test [3] were 0.02 to 0.1 µM, > 30 µM and 10 to 30 µM, respectively.

As for `CN(C(=O)C12CCC(CS(=O)(=O)c3ccc(OC/C(=C/F)CN)cc3)(CC1)CC2)C1CC1` [Compound 73, (E)-4-(((4-((2-(aminomethyl)-3-fluoroallyl)oxy)phenyl)sulfonyl)methyl)-N-cyclopropyl-N-methylbicyclo[2.2.2]octane-1-carboxamide], the figures for the IC50 in test [1], in test [2] and in test [3] were 0.02 to 0.1 µM, > 30 µM and > 30 µM, respectively.

As for `NC/C(=C\F)COc1ccc(S(=O)(=O)CC23CCC(C(=O)NC4CC(F)(F)C4)(CC2)CC3)cc1` [Compound 69, (E)-4-(((4-((2-(aminomethyl)-3-fluoroallyl)oxy)phenyl)sulfonyl)methyl)-N-(3,3-difluorocyclobutyl)bicyclo[2.2.2] octane-1-carboxamide], the IC50 in test [1] was < 0.02 µM; in test [2] it was > 30 µM; in test [3], 10 to 30 µM.

Take `NC/C(=C\F)COc1ccc(S(=O)(=O)CC2CCN(C(=O)C34CC5CC(CC(C5)C3)C4)CC2)cc1` [Compound 43, (E)-adamantan-1-yl(4-(((4-((2-(aminomethyl)-3-fluoroallyl)oxy)phenyl)sulfonyl)methyl)piperidin-1-yl)methanone]: the IC50 in test [1] lay in the range of 0.1 to 0.5 µM; in test [2], 10 to 30 µM; in test [3] it was 10 to 30 µM.

As for `NC/C(=C\F)COc1ccc(S(=O)(=O)CC2CCN(C(=O)C3CC(F)(F)C3)CC2)cc1` [Compound 51, (E)-(4-(((4-((2-(aminomethyl)-3-fluoroallyl)oxy)phenyl)sulfonyl)methyl)piperidin-1-yl)(3,3-difluorocyclobutyl)methanone], the IC50 in test [1] is 0.02 to 0.1 µM; in test [2], > 30 µM; in test [3], > 30 µM.

For the origin of these results see US11472769B2, “SSAO inhibitors and use thereof” (Eccogene (Shanghai) Co., Ltd., priority 2019, dated 2022).
